# Results from patent US10456398B2, “Inhibition of SGK1 in the treatment of heart conditions” (Beth Israel Deaconess Medical Center, Inc., priority 2013, dated 2019).
# Key:
# bkd−/− mutant zebrafish = assay: rescue of 2:1 AV block phenotype in breakdance (bkd−/−) mutant zebrafish; format: in vivo; set-up: percent rescue at peak concentration relative to morpholino: dose or concentration left out as unconfirmed
# Source text: The zebrafish breakdance mutant (Bkd−/−) fish is a unique model of action potential prolongation due to a mutation in the Zerg (zebrafish HERG) channel, that recapitulates human LQT2 syndrome and has been used in high throughput screens to identify molecules that may shorten the action potential duration. The phenotypic manifestation of the prolonged QT interval in the Bkd −/− fish is the presence of functional 2:1 AV block, and previous screens have taken advantage of this easily quantifiable phenotype to screen for ‘rescue’ from 2:1 AV block.
# Bkd^−/− (Breakdance) adults were crossed, and the resultant embryos were reared in E3 buffer at 25° C. 24 hours post-fertilization (hpf) animals were dechorionated with pronase and plated per well in 96-well plates in a final volume of 200 μL. At 48 hpf, compounds were added to the appropriate concentration. Zebrafish were visually scored at 72 hpf for presence or absence of 2:1 AV block. For the dose response curve, the fish at 48 hpf were treated for 24 hours at the desired concentration (from 20 mM stock in DMSO) and scored for suppression of breakdance phenotype. Genetic inhibition of SGK1 was achieved either by injection of 500 μM of SGK1 morpholino or SGK1-dominant negative mRNA at the 1-2 cell stage and the fish were scored for rescue of 2:1 AV block at the 99 hpf stage.
# SGK1 = molecular target: T1, SGK1 (Homo sapiens, UniProt O00141, S422D); assay: cell-based cardiomyocyte assay: SGK1-CA driven phosphorylation of GSK3β in NRVMs (immunoblot); set-up: species or system rat
# T1 construct: expressed in transfected cells; host or cells: neonatal rat ventricular myocytes (NRVMs) infected with adenovirus Ad.SGK1-CA
# T1 sequence (O00141 1-431 S422D): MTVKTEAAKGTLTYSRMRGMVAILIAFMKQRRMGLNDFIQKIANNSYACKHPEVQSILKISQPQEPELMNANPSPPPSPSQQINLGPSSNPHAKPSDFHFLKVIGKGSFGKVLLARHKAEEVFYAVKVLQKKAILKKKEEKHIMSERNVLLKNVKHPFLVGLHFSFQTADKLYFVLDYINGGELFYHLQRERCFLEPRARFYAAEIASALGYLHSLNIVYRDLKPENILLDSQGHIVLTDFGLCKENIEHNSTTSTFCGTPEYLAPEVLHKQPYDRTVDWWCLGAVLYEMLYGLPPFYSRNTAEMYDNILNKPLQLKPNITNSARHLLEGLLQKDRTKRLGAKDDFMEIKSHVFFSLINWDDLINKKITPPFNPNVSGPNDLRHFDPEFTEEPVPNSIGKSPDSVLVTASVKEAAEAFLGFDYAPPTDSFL
# Procedure: (§1) These inhibitors were further characterized using a cell-based cardiomyocyte system (FIG. 3). 2×10^6 neonatal rat ventricular myocytes (NRVMs) were plated on 60 mm plates in DMEM containing 10% horse serum, 5% fetal bovine serum, 1% L-glutamine and 1% penstrep antibiotic. 24 h after plating media was changed to DMEM containing 1% L-glutamine, and 24 h following cells were infected with SGK-CA virus and treated with various concentrations of SGK inhibitors 5377051 (Compound 1A) and 6410136 (Chembridge compound catalogue #6410136). 12 h after infection and treatment, the media was changed and cells were treated again. 12 h following the second treatment NRVMs were harvested and lysed in 300 uL of cell lysis buffer (Cell Signaling) containing protease and phosphatase inhibitors and PMSF at 4 degrees C. for 1 h with shaking. Lysates were subjected to immunoblotting with an antibody against phospho […]-glycogen synthase kinase beta (p-GSK3β), a well-established SGK1 substrate. For gel electrophoresis, 50 ug of protein per well was loaded, transferred to nitrocellulose membrane, blocked, and incubated with GAPDH and P-GSK3β primary antibodies. As expected, Ad.
# Akt = assay: cardiomyocyte assay: Akt (myr-Akt) mediated phosphorylation of GSK3β in NRVMs (immunoblot); format: cell-based, rat; conditions: NRVMs infected with Ad.myr-Akt, FIG. 8B, FIG. 3
# Procedure: as §1, with “As expected, Ad.” left out
# Because SGK1 and Akt are structurally related but have very different roles in the heart, with Akt deemed to be cardioprotective against stress, the inhibitors were assessed to determine if they have an off-target effect on Akt in CMs. […]
structure (smiles),measurement,setting,value
O=C1NC(=S)NC(=O)C1=Cc1ccccc1OCc1ccc(Cl)cc1 [Compound 1A],percent rescue of 2:1 AV block phenotype,"bkd−/− mutant zebrafish; bkd−/− fish, compound at 45 μM",58%
same,toxicity,"bkd−/− mutant zebrafish; bkd−/− fish, concentrations up to 50 μM",minimal and stable toxicity
same,percent rescue at peak concentration relative to morpholino,"bkd−/− mutant zebrafish; bkd−/− zebrafish, FIG. 2",comparable to rescue by morpholino
same,toxicity in the dosages tested,"bkd−/− mutant zebrafish; bkd−/− zebrafish, FIG. 2",no significant increase in toxicity
same,effect on Ad.SGK1-CA induced increase in p-GSK3β,"SGK1; NRVMs infected with SGK1-CA virus, FIG. 8A, FIG. 9",inhibited
same,ability to inhibit SGK1 compared with EMD 638683,"SGK1; cellular assay, 10 micromolar compounds, FIG. 8C",better or at least equivalent
same,effect on Akt-mediated phosphorylation of GSK-3β (p-GSK3β),Akt,neither 5377051 nor 6410136 caused a significant inhibition
